Laboratory results from patent publication US20240132513A1, “BENZAZEPINE DERIVATIVES, COMPOSITIONS, AND METHODS FOR TREATING COGNITIVE IMPAIRMENT” (AGENEBIO, INC., priority 2022, published 2024).
Where two headings read alike, the source gives them in different places.

What was measured:
α5β3γ2 GABAA R = α5β3γ2 GABAA R (Homo sapiens, UniProt P18507+P31644); test: Binding activity on GABAA R: inhibition of [3H]Ro15-1788 binding, α5 containing receptor
Summary of the method: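 Displacement of [3H]Ro15-1788 (flumazenil) measured at 4 °C over 1 h using 0.2 mg/ml membrane protein from Ltk cells carrying α5β3γ2 GABAA receptors, expression induced with 0.5 μM dexamethasone for 1 day; buffer pH 7.4 KH2PO4/EDTA/KCl. 10 μM diazepam defined nonspecific binding; filter-trapped radioactivity counted, in triplicate.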

GABAA R (α5β2γ2) = molecular target: T1, GABAA R (α5β2γ2) (Homo sapiens, UniProt P18507+P31644); test: Positive allosteric modulator activity: potentiation of EC20 GABA current in oocytes; type: cell-based
T1 construct: expressed in transfected cells
T1 sequence (P31644 32-462): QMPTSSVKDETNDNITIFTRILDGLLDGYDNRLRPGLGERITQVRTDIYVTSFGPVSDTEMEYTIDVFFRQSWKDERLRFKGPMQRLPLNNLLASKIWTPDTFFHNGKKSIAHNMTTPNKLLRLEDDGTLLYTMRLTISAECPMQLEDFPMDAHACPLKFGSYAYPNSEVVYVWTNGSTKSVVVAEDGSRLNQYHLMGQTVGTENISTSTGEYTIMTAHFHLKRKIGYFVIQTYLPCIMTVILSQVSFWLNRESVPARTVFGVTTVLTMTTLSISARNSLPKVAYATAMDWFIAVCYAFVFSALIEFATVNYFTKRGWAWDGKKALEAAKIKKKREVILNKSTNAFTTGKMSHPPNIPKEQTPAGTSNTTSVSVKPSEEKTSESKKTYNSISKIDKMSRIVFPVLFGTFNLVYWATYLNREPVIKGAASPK
T1 sequence (P47870 25-512 partner limits assumed): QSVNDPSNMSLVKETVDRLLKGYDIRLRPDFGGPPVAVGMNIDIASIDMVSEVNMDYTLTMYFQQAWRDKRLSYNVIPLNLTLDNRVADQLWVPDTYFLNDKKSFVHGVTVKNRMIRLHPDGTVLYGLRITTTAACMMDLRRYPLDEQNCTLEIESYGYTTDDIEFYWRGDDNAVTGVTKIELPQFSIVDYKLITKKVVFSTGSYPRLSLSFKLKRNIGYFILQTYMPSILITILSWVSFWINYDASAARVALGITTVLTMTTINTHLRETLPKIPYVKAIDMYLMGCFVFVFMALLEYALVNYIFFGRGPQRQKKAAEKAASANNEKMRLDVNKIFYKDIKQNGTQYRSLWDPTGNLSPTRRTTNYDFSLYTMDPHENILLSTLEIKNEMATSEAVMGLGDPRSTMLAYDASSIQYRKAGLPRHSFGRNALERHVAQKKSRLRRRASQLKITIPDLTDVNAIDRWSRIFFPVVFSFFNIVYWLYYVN
T1 sequence (P18507 40-475): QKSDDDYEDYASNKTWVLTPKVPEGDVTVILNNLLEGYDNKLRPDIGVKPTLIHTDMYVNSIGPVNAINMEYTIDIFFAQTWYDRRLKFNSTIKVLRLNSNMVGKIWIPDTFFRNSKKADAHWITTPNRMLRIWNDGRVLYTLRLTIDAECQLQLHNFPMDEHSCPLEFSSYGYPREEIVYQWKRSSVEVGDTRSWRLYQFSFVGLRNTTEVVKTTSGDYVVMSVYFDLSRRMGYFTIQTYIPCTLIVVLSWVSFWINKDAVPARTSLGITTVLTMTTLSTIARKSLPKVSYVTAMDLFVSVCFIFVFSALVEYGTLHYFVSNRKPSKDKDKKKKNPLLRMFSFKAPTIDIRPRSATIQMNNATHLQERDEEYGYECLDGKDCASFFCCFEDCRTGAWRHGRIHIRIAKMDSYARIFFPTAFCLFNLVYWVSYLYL
Method: On day 1, 1 ng/32 nL of GABAA α5β2γ2 cDNA was injected into one oocyte. Test starts on day 2. The cDNA injected to the oocytes was a mix of alpha, beta and gamma, their ratio is 1:1:10 (by weight) and the total weight of the mixed 3 subunits to be injected in one oocyte was 1 ng in 32 nl volume. The injected oocytes can also be tested on day 3. In such case, the cDNA amount injected to the oocytes should be reduced by 20%.
Compounds of the present disclosure were tested using the following procedures.
8 oocytes were placed in 8 chambers of OpusXpress and superfused with Modified Barth's Saline (MBS) at 3 mL/min. Glass electrodes back-filled with 3M KCl (0.5-3 megaohms) were used. Membrane potential of oocytes was voltage-clamped at −60 mV. • 2).
Control Test (Diazepam or Methyl 3,5-Diphenylpyridazine-4-Carboxylate) • 1). New oocytes was used to run new test. • 2). […] Oocytes were washed with MBS for 5-10 min. • 4). […] Itest was divided by IGABA to obtain potentiation (%).
Test Compounds at Multiple Doses • 1). Repeat the above steps 1), 2) and 3) in the control test. • 2). […] Divide Itest by IGABA to obtain potentiation (%). • 3). Discard all tested oocytes, new oocytes were used and the above steps 1) and 2) were repeated to test second concentration of the same compound. Each oocyte was used for only one concentration test for a single test compound. The steps were repeated for other test compounds.

[1] = read-out: GABA α5 Functional Data: potentiation, @ 100 nM, EC20 GABA, ranges of the column heads
[2] = ranges of the column heads, [3H]Ro15-1788, Ltk cell membranes
[3] = read-out: GABA α5 Functional Data: potentiation

α5β3γ2 GABAA R, sequence (P31644 32-462): as the sequence (P31644 32-462) above
α5β3γ2 GABAA R, sequence (P28472 26-473 partner): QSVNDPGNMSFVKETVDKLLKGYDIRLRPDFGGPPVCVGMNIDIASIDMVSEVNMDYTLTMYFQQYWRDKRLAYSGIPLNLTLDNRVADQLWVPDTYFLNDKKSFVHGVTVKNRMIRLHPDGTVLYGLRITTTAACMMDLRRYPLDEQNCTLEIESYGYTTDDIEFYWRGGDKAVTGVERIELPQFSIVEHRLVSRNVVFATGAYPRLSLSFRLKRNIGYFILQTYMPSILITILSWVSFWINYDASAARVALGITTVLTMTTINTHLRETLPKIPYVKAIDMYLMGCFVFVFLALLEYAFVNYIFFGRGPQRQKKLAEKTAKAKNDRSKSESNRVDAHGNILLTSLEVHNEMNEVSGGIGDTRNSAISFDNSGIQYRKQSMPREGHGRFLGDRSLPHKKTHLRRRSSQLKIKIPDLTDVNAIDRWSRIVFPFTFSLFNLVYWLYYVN
α5β3γ2 GABAA R, sequence (P18507 40-475): as the sequence (P18507 40-475) above

Compound	Ki (α5β3γ2 GABAA R) [nM]	activation at 0.1 µM (GABAA R (α5β2γ2); [1]) [%]	Ki (α5β3γ2 GABAA R; [2]) [nM]	activation at 0.1 µM (GABAA R (α5β2γ2); [3]) [%]
COc1ccc2c(c1)-c1nn(C)cc1Cc1c(-c3noc(C4COCCO4)n3)ncn1-2 (centres unmarked) [Compound 207]	< 100	20 to 50	–	–
Clc1ccc2c(c1)-c1[nH]ncc1Cc1c(-c3nc(C4CC4)no3)ncn1-2 [Compound 105]	< 100	20 to 50	–	–
Cn1cc2c(n1)-c1cc(Cl)ccc1-n1cnc(-c3noc(C4CCOC4)n3)c1C2 (centres unmarked) [Compound 145]	< 100	5 to 20	–	–
Clc1ccc2c(c1)-c1[nH]ncc1Cc1c(-c3nc(C4CCCC4)no3)ncn1-2 [Compound 115]	< 100	5 to 20	–	–
COc1ccc2c(c1)-c1[nH]ncc1Cc1c(-c3noc(COCC(F)(F)F)n3)ncn1-2 [Compound 174]	< 100	20 to 50	–	–
COc1ccc2c(c1)-c1nn(C)cc1Cc1c(-c3noc(C(C)(C)OC)n3)ncn1-2 [Compound 185]	< 100	20 to 50	–	–
CCn1cc2c(n1)-c1cc(Cl)ccc1-n1cnc(-c3nc(C)no3)c1C2 [Compound 159]	< 100	20 to 50	–	–
CC(C)c1noc(-c2ncn3c2Cc2cn(Cc4ccncc4)nc2-c2cc(Cl)ccc2-3)n1 [Compound 97]	< 100	5 to 20	–	–
COc1ccc2c(c1)-c1nn(C)cc1Cc1c(-c3nc([C@H]4CCOC4)no3)ncn1-2 [Compound 252]	< 100	20 to 50	–	–
CC(C)c1noc(-c2ncn3c2Cc2cn(CCN(C)C)nc2-c2cc(Cl)ccc2-3)n1 [Compound 112]	< 100	5 to 20	–	–
CC(C)n1cc2c(n1)-c1cc(Cl)ccc1-n1cnc(-c3noc(C(F)(F)F)n3)c1C2 [Compound 148]	–	–	< 100	5 to 20
COc1ccc2c(c1)-c1[nH]ncc1Cc1c(-c3noc(C4COCCO4)n3)ncn1-2 (centres unmarked) [Compound 187]	< 100	20 to 50	–	–
COc1ccc2c(c1)-c1nn(CC3CCOC3)cc1Cc1c(-c3nc(C4CC4)no3)ncn1-2 (centres unmarked) [Compound 168]	< 100	20 to 50	–	–
Clc1ccc2c(c1)-c1[nH]ncc1Cc1c(C#Cc3ccccn3)ncn1-2 [Compound 94]	–	–	< 100	20 to 50
COC1(c2nc(-c3ncn4c3Cc3cn(C)nc3-c3cc(Cl)ccc3-4)no2)CC1 [Compound 216]	< 100	5 to 20	–	–
Cn1cc2c(n1)-c1cc(Cl)ccc1-n1cnc(-c3nnc(C(F)(F)F)o3)c1C2 [Compound 210]	< 100	20 to 50	–	–
COc1ccc2c(c1)-c1nn(C(C)C)cc1Cc1c(-c3noc(C(C)C)n3)ncn1-2 [Compound 114]	< 100	20 to 50	–	–
COCCn1cc2c(n1)-c1cc(OC)ccc1-n1cnc(-c3noc(C(C)C)n3)c1C2 [Compound 110]	< 100	20 to 50	–	–
CC(C)(C)C#Cc1ncn2c1Cc1cn[nH]c1-c1cc(Cl)ccc1-2 [Compound 63]	–	–	< 100	20 to 50
COc1ccc2c(c1)-c1c(cnn1CC1CCOC1)Cc1c(-c3nc(C4CC4)no3)ncn1-2 (centres unmarked) [Compound 249]	< 100	5 to 20	–	–
Clc1ccc2c(c1)-c1c(cnn1CC1CC1)Cc1c(-c3nc(C4CC4)no3)ncn1-2 [Compound 162]	< 100	5 to 20	–	–
CCn1cc2c(n1)-c1cc(OC)ccc1-n1cnc(-c3noc(C4CC4)n3)c1C2 [Compound 157]	< 100	20 to 50	–	–
COc1ccc2c(c1)-c1nn(C)cc1Cc1c(-c3noc(C4(F)CC4)n3)ncn1-2 [Compound 205]	< 100	20 to 50	–	–
CCn1cc2c(n1)-c1cc(OC)ccc1-n1cnc(-c3noc(C(C)C)n3)c1C2 [Compound 156]	< 100	20 to 50	–	–
COc1ccc2c(c1)-c1nn(CC3CCCO3)cc1Cc1c(-c3noc(COCC(F)(F)F)n3)ncn1-2 (centres unmarked) [Compound 292]	< 100	5 to 20	–	–
COc1ccc2c(c1)-c1[nH]ncc1Cc1c(-c3noc(C)n3)ncn1-2 [Compound 88]	< 100	5 to 20	–	–
Cn1cc2c(n1)-c1cc(Cl)ccc1-n1cnc(-c3cnn(CC4CCCO4)c3)c1C2 (centres unmarked) [Compound 222]	< 100	5 to 20	–	–
COCc1noc(-c2ncn3c2Cc2cn(C)nc2-c2cc(OC)ccc2-3)n1 [Compound 170]	< 100	20 to 50	–	–

Compound	Ki (α5β3γ2 GABAA R) [nM]	activation at 0.1 µM (GABAA R (α5β2γ2); [1]) [%]	Ki (α5β3γ2 GABAA R; [2]) [nM]	activation at 0.1 µM (GABAA R (α5β2γ2); [3]) [%]
CCOCc1nc(-c2ncn3c2Cc2cn(C)nc2-c2cc(Cl)ccc2-3)no1 [Compound 243]	–	–	< 100	5 to 20
CCn1cc2c(n1)-c1cc(Cl)ccc1-n1cnc(-c3noc(C4(OC)CC4)n3)c1C2 [Compound 198]	–	–	< 100	20 to 50
COc1ccc2c(c1)-c1nn(CC3CC3)cc1Cc1c(-c3nc(C(F)(F)F)no3)ncn1-2 [Compound 116]	< 100	5 to 20	–	–
COc1ccc2c(c1)-c1nn(Cc3ccccn3)cc1Cc1c(-c3nc(C(C)C)no3)ncn1-2 [Compound 124]	< 100	20 to 50	–	–
COc1ccc2c(c1)-c1nn(Cc3cccnc3)cc1Cc1c(-c3nc(C(C)C)no3)ncn1-2 [Compound 125]	< 100	20 to 50	–	–
CCn1cc2c(n1)-c1cc(OC)ccc1-n1cnc(-c3nc(COC)no3)c1C2 [Compound 236]	< 100	20 to 50	–	–
COc1ccc2c(c1)-c1[nH]ncc1Cc1c(-c3noc(C4(OC)CC4)n3)ncn1-2 [Compound 188]	–	–	< 100	> 50
COc1ccc2c(c1)-c1nn(C)cc1Cc1c(-c3nc(C(F)(F)F)no3)ncn1-2 [Compound 119]	< 100	5 to 20	–	–
COc1ccc2c(c1)-c1nn(Cc3ccccc3)cc1Cc1c(-c3nc(C(C)C)no3)ncn1-2 [Compound 44]	< 100	20 to 50	–	–
Cn1cc2c(n1)-c1cc(Cl)ccc1-n1cnc(-c3noc(C4COC4)n3)c1C2 [Compound 223]	–	–	< 100	5 to 20
COc1ccc2c(c1)-c1nn(CC3CCCO3)cc1Cc1c(-c3nnc(COCC(F)(F)F)o3)ncn1-2 (centres unmarked) [Compound 303]	< 100	20 to 50	–	–
COc1ccc2c(c1)-c1nn(C)cc1Cc1c(-c3noc([C@H]4CCCO4)n3)ncn1-2 [Compound 258]	< 100	5 to 20	–	–
COc1ccc2c(c1)-c1[nH]ncc1Cc1c(-c3nc(C(C)C)no3)ncn1-2 [Compound 10]	< 100	20 to 50	–	–
CC(C)OCc1noc(-c2ncn3c2Cc2cn(C)nc2-c2cc(Cl)ccc2-3)n1 [Compound 242]	< 100	20 to 50	–	–
Cn1cc2c(n1)-c1cc(Cl)ccc1-n1cnc(-c3noc(C4COCCO4)n3)c1C2 (centres unmarked) [Compound 213]	< 100	> 50	–	–
CC(C)c1noc(-c2ncn3c2Cc2cn[nH]c2-c2cc(Cl)ccc2-3)n1 [Compound 34]	< 100	20 to 50	–	–
COCc1coc(-c2ncn3c2Cc2cn(C)nc2-c2cc(OC)ccc2-3)n1 [Compound 269]	< 100	5 to 20	–	–
COc1ccc2c(c1)-c1[nH]ncc1Cc1c(C#Cc3ccnn3C)ncn1-2 [Compound 39]	–	–	< 100	20 to 50
COc1ccc2c(c1)-c1nn(C)cc1Cc1c(-c3nc(C4COC4)no3)ncn1-2 [Compound 239]	< 100	20 to 50	–	–
COc1ccc2c(c1)-c1[nH]ncc1Cc1c(-c3nc(C4CCOC4)no3)ncn1-2 (centres unmarked) [Compound 100]	< 100	5 to 20	–	–
Cn1cc2c(n1)-c1cc(Cl)ccc1-n1cnc(-c3noc(COCC(F)(F)F)n3)c1C2 [Compound 217]	< 100	20 to 50	–	–
Cn1cc2c(n1)-c1cc(Cl)ccc1-n1cnc(-c3noc(COC(C)(C)C)n3)c1C2 [Compound 215]	< 100	20 to 50	–	–
COc1ccc2c(c1)-c1nn(CC3CCOC3)cc1Cc1c(-c3ncc(C)o3)ncn1-2 (centres unmarked) [Compound 287]	–	–	< 100	20 to 50
COc1ccc(C#Cc2ncn3c2Cc2cn[nH]c2-c2cc(Cl)ccc2-3)cn1 [Compound 52]	< 100	5 to 20	–	–
CC(C)(C)c1noc(-c2ncn3c2Cc2cn[nH]c2-c2cc(Cl)ccc2-3)n1 [Compound 35]	< 100	20 to 50	–	–
COc1ccc2c(c1)-c1nn(C)cc1Cc1c(-c3noc(C4(OC)CC4)n3)ncn1-2 [Compound 203]	< 100	20 to 50	–	–
Cn1cc2c(n1)-c1cc(Cl)ccc1-n1cnc(C#CC(C)(C)C)c1C2 [Compound 101]	< 100	20 to 50	–	–
